In US9358096B2, “Methods of treatment with drug eluting stents with prolonged local elution profiles with high local concentrations and low systemic concentrations” (Abbott Laboratories, priority 2007, dated 2016):
Where two headings read alike, the source gives them in different places.

Assay: everolimus arterial tissue concentration in and next to the stented vessel
Format: in vivo, swine
Conditions: for Tmax: pig; for concentration at 3 days / concentration at 7 days / concentration at 28 days / concentration at 56 days / concentration at 90 days / concentration at 14 days: swine
[1] = 8×28 mm stent, 1070 μg everolimus (first aspect, matches group 1)
[2] = 10×28 mm stent, 1070 μg everolimus
[3] = 1070 μg, 8.0×28 mm stent, group 2, 1070 μg Lot #2, read-out: drug concentration in tissue proximal to stented region
[4] = 3209 μg, 8.0×28 mm stent, group 3, 3209 μg, read-out: drug concentration in tissue distal to stented region
[5] = 3209 μg, 8.0×28 mm stent, group 3, 3209 μg, read-out: drug concentration in tissue proximal to stented region
[6] = arterial tissue distal to stented region (unstented), 1070 μg, 10.0×28 mm stent, 1070 μg, read-out: drug concentration in tissue distal to stented region
[7] = arterial tissue of stented region, 1070 μg, 8.0×28 mm stent, group 2, 1070 μg Lot #2, read-out: drug concentration in tissue of stented region
[8] = arterial tissue of stented region, 1070 μg, 10.0×28 mm stent, 1070 μg, read-out: drug concentration in tissue of stented region
[9] = arterial tissue of the stented region, other: drug-eluting stent implanted in iliofemoral arteries, 1070 μg, 10.0×28 mm stent, 1070 μg, read-out: drug concentration in tissue of stented region
[10] = arterial tissue proximal to stented region (unstented), 1070 μg, 10.0×28 mm stent, 1070 μg, read-out: drug concentration in tissue proximal to stented region
[11] = arterial tissue, distal stented region (D), 7.0×100 mm stent, read-out: Mean Arterial Tissue Concentration, D distal stented region
[12] = arterial tissue, medial stented region (C), 7.0×100 mm stent, read-out: Mean Arterial Tissue Concentration, C medial stented region
[13] = arterial tissue, proximal stented region (B), 7.0×100 mm stent, read-out: Mean Arterial Tissue Concentration, B proximal stented region
[14] = arterial tissue, stented region, 3209 μg, 8.0×28 mm stent, group 3, 3209 μg, read-out: drug concentration in tissue of stented region
[15] = arterial tissue, unstented segment distal to stented region, 1070 μg, 8.0×28 mm stent, group 2, 1070 μg Lot #2, read-out: drug concentration in tissue distal to stented region
[16] = other: drug-eluting stent implanted in iliofemoral arteries, 1070 μg, 10.0×28 mm stent, 1070 μg, read-out: drug concentration in tissue distal to stented region
[17] = other: drug-eluting stent implanted in iliofemoral arteries, 1070 μg, 10.0×28 mm stent, 1070 μg, read-out: drug concentration in tissue proximal to stented region

**Q.** Which results are given for CO[C@H]1C[C@@H]2CC[C@@H](C)[C@@](O)(O2)C(=O)C(=O)N2CCCC[C@H]2C(=O)O[C@H]([C@H](C)C[C@@H]2CC[C@@H](OCCO)[C@H](OC)C2)CC(=O)[C@H](C)/C=C(\C)[C@@H](O)[C@@H](OC)C(=O)[C@H](C)C[C@H](C)/C=C/C=C/C=C/1C [everolimus, 40-O-(2-hydroxyethyl)-rapamycin]?
**A.** tissue Cmax (7×100 mm stent, 3777 μg everolimus): ≥ 16347 ng/g; tissue Cmax [1]: ≥ 12946 ng/g; tissue Tmax [1]: 72 h; tissue Cmax (8×28 mm stent, 1070 μg everolimus (second aspect, matches group 2)): ≥ 8709 ng/g; tissue Cmax (8×28 mm stent, 3209 μg everolimus): ≥ 22027 ng/g; tissue Cmax [2]: ≥ 6607 ng/g; tissue Tmax [2]: 72 h; Tmax (arterial tissue of the stented vessel, 1070 ug, 8×28 mm stent, 1070 μg everolimus (second aspect, matches group 2)): 72 h; Tmax (arterial tissue of the stented vessel, 3209 ug, 8×28 mm stent, 3209 μg everolimus): 72 h; Tmax (arterial tissue, 3777 ug, 7×100 mm stent, 3777 μg everolimus): 72 h; concentration at 3 days [3]: 533 ng/g; concentration at 7 days [3]: 104 ng/g; concentration at 28 days [3]: 50 ng/g; concentration at 56 days [3]: 10 ng/g; concentration at 90 days [3]: 16 ng/g; concentration at 3 days [4]: 856 ng/g; concentration at 3 days [5]: 520 ng/g; concentration at 7 days [4]: 910 ng/g; concentration at 7 days [5]: 698 ng/g; concentration at 14 days [4]: 1120 ng/g; concentration at 14 days [5]: 307 ng/g; concentration at 28 days [4]: 414 ng/g; concentration at 28 days [5]: 136 ng/g; concentration at 90 days [4]: 63 ng/g; concentration at 90 days [5]: 55 ng/g; concentration at 7 days [6]: 208 ng/g; concentration at 14 days [6]: 251 ng/g; concentration at 28 days [6]: 86 ng/g; concentration at 3 days [7]: 8710 ng/g; concentration at 7 days [7]: 3590 ng/g; concentration at 28 days [7]: 1850 ng/g; concentration at 56 days [7]: 2190 ng/g; concentration at 90 days [7]: 1270 ng/g; concentration at 14 days [8]: 4140 ng/g; concentration at 28 days [8]: 3930 ng/g; concentration at 3 days [9]: 6610 ng/g; concentration at 7 days [9]: 5100 ng/g; concentration at 90 days [9]: 2300 ng/g; concentration at 14 days [10]: 40 ng/g; concentration at 28 days [10]: 12 ng/g; concentration at 3 days [11]: 12400 ng/g; concentration at 7 days [11]: 9630 ng/g; concentration at 14 days [11]: 6530 ng/g; concentration at 28 days [11]: 4280 ng/g; concentration at 90 days [11]: 2400 ng/g; concentration at 3 days [12]: 16300 ng/g; concentration at 7 days [12]: 11400 ng/g; concentration at 14 days [12]: 5240 ng/g; concentration at 28 days [12]: 4150 ng/g; concentration at 90 days [12]: 2700 ng/g; concentration at 3 days [13]: 10900 ng/g; concentration at 7 days [13]: 7890 ng/g; concentration at 14 days [13]: 4820 ng/g; concentration at 28 days [13]: 3620 ng/g; concentration at 90 days [13]: 2210 ng/g; concentration at 3 days [14]: 22000 ng/g; concentration at 7 days [14]: 17200 ng/g; concentration at 14 days [14]: 16500 ng/g; concentration at 28 days [14]: 13200 ng/g; concentration at 90 days [14]: 2460 ng/g; concentration at 3 days [15]: 1550 ng/g; concentration at 7 days [15]: 435 ng/g; concentration at 28 days [15]: 73 ng/g; concentration at 56 days [15]: 25 ng/g; concentration at 90 days [15]: 11 ng/g; concentration at 3 days [16]: 278 ng/g; concentration at 3 days [17]: 100 ng/g; concentration at 7 days [17]: 37 ng/g; concentration at 90 days [16]: 8 ng/g; concentration at 90 days [17]: 7 ng/g; concentration at 3 days (7.0×100 mm stent, read-out: Mean Arterial Tissue Concentration, A non-stented region proximal to stented region): 269 ng/g; concentration at 3 days (7.0×100 mm stent, read-out: Mean Arterial Tissue Concentration, E non-stented region distal to stented region): 263 ng/g
